Read-outs that look alike come from different tables or passages of the source. Each block holds one molecule with its values, some of them ahead of it.
Key:
MC3T3-E1 cell line [1] = assay: MTT cytotoxicity assay, dose-response in MC3T3-E1 cells; assay type: cell-based; settings: read-out: Toxicity IC50
From the text: Without wishing to be bound by any theory, it is believed that the ionic liquids (ILs) structures prevent the hydrophobic effects of the imidazolium cation and thus cellular uptake by the introduction of a second cationic head. These structures, which are formed by two imidazolium rings linked by an alkyl chain and anionic counterpart, may result in non-toxic compounds because the dicationic structure will not be able to penetrate and alter the physical properties of the lipid bilayer. The ionic liquids were synthesized and performed preliminary studies with the dicationic imidazolium-based IL compounds as described above, and the IC50 values were assessed through MTT assay (Gindri et al., 2014).
The ionic liquids were synthesized and performed preliminary studies with the dicationic imidazolium-based IL compounds as described above, and the IC50 values were assessed through MTT assay (Egorova et al., 2014). The toxicity of ionic liquids was accessed using MC3T3-E1 cell lines. The cells were plated in 6-well plates and after 24 h, cells were treated with media containing a range of concentrations of ionic liquids. All concentrations tested for generation of dose-response curves. A non-linear regression sigmoidal dose-response curve was fitted to each set of values to allow the calculation of IC50 values.

[2] = Thermal analysis of pure ionic liquid and equimolar mixture with TiO2 nanoparticles; assay type: physicochemical
Protocol: In order to evaluate the affinity of ionic liquids with the titanium surface, experiments were conducted with imidazole derived ionic liquids having as contra-ion the anions Br^−, BF4^− and NTf2^−. In the study, TiO2 nanoparticles were used instead of bulk titanium in order to allow for a better understanding of the interaction of the selected ionic liquids with the Ti oxide film (TiO2). Thermal behavior of TiO2 pure (nanoparticles), ionic liquid pure and the equimolar mixture of TiO2 and the different ionic liquids attempted were evaluated. […] Based upon the loss of a glass transition and the introduction of a new melting point for the TiO2 nanoparticle and the [DBMIM]2[NTf2], without wishing to be bound by any theory, it is believed that a more organized structural arrangement is formed (Grindri, et al., 2014).

[3] = DLS of TiO2 particles and equimolar TiO2 + ionic liquid; assay type: physicochemical; settings: for Rh1 hydrodynamic radius: IL + TiO2, relaxation mode 1; for Rh2 hydrodynamic radius: IL + TiO2, relaxation mode 2; for Thickness of IL film on TiO2 particles: difference IL + TiO2 minus TiO2
Protocol: To evaluate the morphologic characteristics of new structures formed by TiO2+ionic liquid both DLS and SEM techniques were used. […] DLS experiments were performed with TiO2 particles only, and with solutions of equimolar amounts of TiO2+ionic liquid. The hydrodynamic radius (Rh) of pure TiO2 particles and mixture of TiO2+ionic liquid was monitored and compared in order to analyze the formation of new organized phases related to ionic liquid film adhesion on TiO2 particles. […] The value from the difference between the size of TiO2+ionic liquid and TiO2 was used to calculate ionic liquid film thickness formed on TiO2 particles.
Comparing the data between pure TiO2 and the mixtures of [DBMIM]2[Br], [DBMIM]2[BF4] and [DBMIM]2[NTf2], it can be observed that in the first relaxation mode (Rh1) a small difference was detected between the size of the particles, which can be related with the single TiO2 nanoparticles, [DBMIM]2[Br], [DBMIM]2[BF4] and [DBMIM]2[NTf2] dispersed in solution. However, in the second relaxation mode a significant difference was noted between the size of pure TiO2 nanoparticles and TiO2+ionic liquid (Table 6). It was observed that Rh2 tended to increase with ionic liquid presence, which thus indicates film formation on the particles surface. Another interesting characteristic from the DLS results is that film thickness increased with hydrophobicity of anions (FIG. 1), which is in agreement with the trend reported by Ulbricht and Wittmar, 2012.

[4] = tested on: gingival epithelial (HGF-1); assay: Cell proliferation (MTT) on IL-coated Ti, gingival epithelial cells; assay type: cell-based; settings: HGF-1, 1 and 7 days
[5] = tested on: osteoblast-like cells (MC3T3-E1); assay: Cell proliferation (MTT) on IL-coated Ti, osteoblast-like cells; assay type: cell-based; settings: MC3T3-E1, 1 and 7 days
[6] = tested on: osteoblast-like cells (MC3T3-E1); assay: Alkaline phosphatase activity / osteoblast differentiation on IL-coated Ti; assay type: cell-based; settings: day 1 and day 7
From the text: FIGS. 6A-6F show osteoblast identification through alkaline phosphatase assay. Ti Control on day 1 (FIG. 6A) and day 7 (FIG. 6D) along with IL9 coated Ti shown on day 1 (FIG. 6B) and day 7 (FIG. 6E) are shown. […] Cell differentiation was observed after 7 days on Ti control and IL9 coated Ti in which osteoblast are distinguished from stem cells by the purple color of the stain as indicated by the black arrows. […] As such, these compounds can be considered to be non-toxic to cells while still maintaining anti-microbial properties.
Experiments were performed in which Ti control disks, IL9-coated Ti, and IL12-coated Ti were exposed to gingival epithelial (HGF-1) and osteoblast-like cells (MC3T3-E1) during periods of 1 and 7 days. It was observed that after 1 day both Ti control and IL-coated Ti were covered with a layer of osteoblast-like cells (FIGS. 6A & 6B) illustrating the initial cell attachment on the surface. […] In vitro and in vivo osteoblast cell differentiation can be characterized during a phase denominated matrix maturation. During this period, a high expression of alkaline phosphatase (AP) is observed and can be used as an early differentiation marker to evaluate the differentiation of stem cells into osteoblasts (Shang et al., 2014 and Wang et al., 2012). […]

S. mutans = S. mutans planktonic and biofilm CFU on IL-coated Ti in artificial saliva/BHI; assay type: cell-based, Streptococcus mutans
Protocol: To determine if ILs retain antimicrobial activity when applied to Ti, preliminary experiments with two ILs (IL9 and IL12) and S. mutans, an early colonizer. Control Ti, IL9-coated Ti, and IL12-coated Ti were immersed in artificial saliva/brain heart infusion (BHI) medium containing S. mutans for 24 h and 72 h. After this period, planktonic bacterial cells in the fluid medium in which disks were immersed, and biofilm cells, adhered to the disk surface, were quantified by serial dilution and plating.

MC3T3-E1 cell line [7] = settings: monocationic analogue of IL1, comparison value; read-out: IC50 of monocationic IL; cited from earlier work

Molecule: 1,8-Bis(3-methylimidazolium-1-yl)octane diascorbate [IL-2]
IC50 (MC3T3-E1 cell line [1]): 3.6 ± 0.6 mM

Molecule: 1,8-Bis(3-methylimidazolium-1-yl)octane dihistidine [IL-5]
IC50 (MC3T3-E1 cell line [1]): 25.7 ± 8.7 mM

Molecule: 1,8-Bis(3-methylimidazolium-1-yl)octane dileucine [IL-4]
IC50 (MC3T3-E1 cell line [1]): 12.5 ± 0.2 mM

Molecule: 1,8-Bis(3-methylimidazolium-1-yl)octane dimethionine [IL-6]
IC50 (MC3T3-E1 cell line [1]): 24.2 ± 10.3 mM

Molecule: 1,8-Bis(3-methylimidazolium-1-yl)octane diphenylalanine [IL-3]
IC50 (MC3T3-E1 cell line [1]): 8.3 ± 3 mM

Molecule: 1,8-bis(3-methylimidazolium-1-yl)octane bis (trifluoromethane) sulfonimide [IL-14]
Td1 first decomposition temperature ([2]; IL + TiO2 equimolar mixture): 463 °C | Td1 first decomposition temperature ([2]; pure ionic liquid): 473 °C | Rh1 hydrodynamic radius [3]: 1.6 nm | Rh2 hydrodynamic radius [3]: 894.6 nm | Thickness of IL film on TiO2 particles ([3]; relaxation mode 1): 0.9 nm | Thickness of IL film on TiO2 particles ([3]; relaxation mode 2): 591.1 nm

Td2 second decomposition temperature ([2]; IL + TiO2 equimolar mixture): 372.9 °C | Rh1 hydrodynamic radius [3]: 0.8 nm | Rh2 hydrodynamic radius [3]: 421.9 nm | Thickness of IL film on TiO2 particles ([3]; relaxation mode 1): 0.2 nm | Thickness of IL film on TiO2 particles ([3]; relaxation mode 2): 118.4 nm
Molecule: C[n+]1ccn(CCCCCCCCn2cc[n+](C)c2)c1.[Br-].[Br-] [IL-1, 1,8-bis(3-methylimidazolium-1-yl) octane bromide]
IC50 (MC3T3-E1 cell line [1]; Mus musculus): 24.6 ± 3.5 mM | Td1 first decomposition temperature ([2]; IL + TiO2 equimolar mixture): 310.0 °C | Td1 first decomposition temperature ([2]; pure ionic liquid): 307.5 °C

Molecule: C[n+]1ccn(CCCCCCCCCCn2cc[n+](C)c2)c1.[Br-].[Br-] [IL-7, 1,10-Bis(3-methylimidazolium-1-yl)decane dibromide]
IC50 (MC3T3-E1 cell line [1]; Mus musculus): 12.3 ± 0.1 mM | melting point: 130.77 °C

Molecule: C[n+]1ccn(CCCCCCCCCCn2cc[n+](C)c2)c1 [IL-8, 1,10-Bis(3-methylimidazolium-1-yl)decane diascorbate]
IC50 (MC3T3-E1 cell line [1]): 3.1 ± 1.2 mM

Molecule: C[n+]1ccn(CCCCCCCCCCn2cc[n+](C)c2)c1.NC(Cc1ccccc1)C(=O)[O-].NC(Cc1ccccc1)C(=O)[O-] [IL-9, 1,10-Bis(3-methylimidazolium-1-yl)decane diphenylalanine]
IC50 (MC3T3-E1 cell line [1]): 8.5 ± 1.5 mM | Cell proliferation versus Ti control [4]: did not show significant differences | Cell proliferation versus Ti control [5]: did not show significant differences | ALP activity / cell differentiation versus Ti control [6]: without statistically significant differences | Anti-S. mutans activity of coated surface (S. mutans; 72 h trial): retain significant anti-S. mutans activity | S. mutans recovered from coated Ti surfaces (S. mutans; biofilm cells after 24 h, control Ti ~10^6 CFU): ~10^2 CFU

Molecule: CC(C)C[C@H](N)C(=O)O.CC(C)C[C@H](N)C(=O)O.C[n+]1ccn(CCCCCCCCCCn2cc[n+](C)c2)c1 [IL-10, 1,10-Bis(3-methylimidazolium-1-yl)decane dileucine]
IC50 (MC3T3-E1 cell line [1]): 12.3 ± 0.5 mM

Molecule: C[n+]1ccn(CCCCCCCCCCn2cc[n+](C)c2)c1.N[C@@H](Cc1c[nH]cn1)C(=O)O.N[C@@H](Cc1c[nH]cn1)C(=O)O [IL-11, 1,10-Bis(3-methylimidazolium-1-yl)decane dihistidine]
IC50 (MC3T3-E1 cell line [1]): 12.9 ± 1.1 mM

Molecule: CSCC[C@H](N)C(=O)O.CSCC[C@H](N)C(=O)O.C[n+]1ccn(CCCCCCCCCCn2cc[n+](C)c2)c1 [IL-12, 1,10-Bis(3-methylimidazolium-1-yl)decane dimethionine]
IC50 (MC3T3-E1 cell line [1]): 13.9 ± 2.7 mM | Antimicrobial activity of coated Ti against S. mutans (S. mutans; 24 h and 72 h immersion): did not show significant antimicrobial activity

Td2 second decomposition temperature ([2]; IL + TiO2 equimolar mixture): 455.8 °C | Td2 second decomposition temperature ([2]; pure ionic liquid): 455.8 °C | Rh1 hydrodynamic radius [3]: 0.7 nm | Rh2 hydrodynamic radius [3]: 513.0 nm | Thickness of IL film on TiO2 particles ([3]; relaxation mode 1): 0.1 nm | Thickness of IL film on TiO2 particles ([3]; relaxation mode 2): 209.5 nm
Molecule: C[n+]1ccn(CCCCCCCCn2cc[n+](C)c2)c1.F[B-](F)(F)F.F[B-](F)(F)F [IL-13, 1,8-bis(3-methylimidazolium-1-yl) octane tetrafluorborate]
Td1 first decomposition temperature ([2]; IL + TiO2 equimolar mixture): 343.8 °C | Td1 first decomposition temperature ([2]; pure ionic liquid): 346.8 °C

Molecule: CCCCCCCCn1cc[n+](C)c1 [[C8mim][Br]]
IC50 (MC3T3-E1 cell line [7]): 1.51 ± 0.2 mM

Source: US10370327B2, “Ionic liquid films with multiple functionalities for surface modification of biomedical alloys” (BOARD OF REGENTS, THE UNIVERSITY OF TEXAS SYSTEM, priority 2014, dated 2019)
